Test results reported in patent US20250101017A1, “SALT CRYSTAL FORM AND FREE BASE CRYSTAL FORM OF KINASE INHIBITOR” (CYTOSINLAB THERAPEUTICS CO., LTD., priority 2022, published 2025).
≈ marks a conversion by molar mass, not a printed value. One block for each compound: values may come before it.

Columns and labels:
Type in all cases: physicochemical
[1] = Solubility of crystal form Form T in different solutions at 37° C. (about 60 mg in 2 mL, 2 h and 24 h; HPLC, pH, XRPD)
Protocol: Approximately 60 mg of the sample was weighed and added into a 4 mL bottle, and 2 mL of different solvents (water, pH 1.0, 3.0, 5.0, 7.0, 9.0, FaSSIF, FeSSIF, and SGF) were added and the mixtures were stirred at 37° C. for 24 h after adding magnetic stirring bar. Samples were taken at 2 and 24 h respectively. After filtration, the sample concentration in the filtrate was tested by HPLC, and the pH value of the filtrate and the XRPD of the remaining solid were also measured. The measured solubility of the sample in different solutions was as follows.

[2] = Solubility at 37° C. in buffer solutions with different pH (about 10 mg in 1 ml, 2 h and 24 h); filtrate concentration and pH, XRPD of remaining solid; details: for solubility at 2 h / solubility at 24 h: 37 °C, thermodynamic from solid; for solubility at 2 h: read-out: Solubility at 37° C. (mg/ml) 2 h; for solubility at 24 h: read-out: Solubility at 37° C. (mg/ml) 24 h; for pH (24 h): filtrate
Protocol: Approximately 10 mg of malate crystal form VII-A and free base Form A were weighed separately, and 1 ml of buffer solutions with different pH were added to make the solution supersaturated, and the mixtures were stirred at 37° C. for 2 h and 24 hours. The samples were filtered, and the filtrates were measured to determine the concentration and pH value, and the remaining solid was subjected to XRPD determination. The specific results were as follows: […]

[3] = Solid stability of crystal forms (80° C., light exposure, 25° C./60% RH, 40° C./75% RH); purity by liquid chromatography and XRPD of the solids; details: for Crystal form: XRPD
Protocol: A certain amount of API and malate crystal form VII-A were weighed and added into a liquid phase vial, and a total of 9 parallels were prepared. The 9 parallels were placed separately in 80° C. (open); 25° C., 60% RH (open); 40° C., 75% RH (open); and light stability box closed). The stabilities under conditions of: 80° C. for one day, light exposure for 10 days, as well as 25° C., 60% RH and 40° C., 75% RH for one and two weeks were tested, and the XRPD of the solids were measured.
A certain amount of crystal form B was weighed and added into a liquid phase vial, and a total of 9 parallels were prepared. 9 parallels were placed separately in 80° C.; 25° C., 60% RH, 40° C., 75% RH; and light stability boxe.

pH ([1]; FaSSIF, filtrate, 2 h): 6.72 | pH ([1]; FaSSIF, filtrate, 24 h): 6.73 | pH ([1]; FeSSIF, filtrate, 2 h): 6.50 | pH ([1]; FeSSIF, filtrate, 24 h): 6.50 | pH ([1]; SGF, filtrate, 2 h): 6.20 | pH ([1]; SGF, filtrate, 24 h): 6.22 | pH of the solution compared to the initial pH value ([1]; other solvents (water, pH 7.0, pH 9.0, FaSSIF)): did not change significantly | crystal form of remaining solid ([1]; other solvents (water, pH 7.0, pH 9.0, FaSSIF), XRPD): did not change | pH ([1]; pH 1.0, filtrate, 2 h): 5.13 | pH ([1]; pH 1.0, filtrate, 24 h): 5.17 | pH of the filtrate compared to the initial pH value of the buffer solution ([1]; pH 1.0, pH 3.0, pH 5.0, FeSSIF, and SGF): significant changes | solubility at 2 h ([1]; pH 1.0 solution, simulated gastric fluid, thermodynamic from solid, pH 1.0, 37° C., 2 h): 28000 µg/mL (≈ 48.7 mM) | solubility at 24 h ([1]; pH 1.0 solution, simulated gastric fluid, thermodynamic from solid, pH 1.0, 37° C., 24 h): 29300 µg/mL (≈ 51 mM) | pH ([1]; pH 3.0, filtrate, 2 h): 6.51 | pH ([1]; pH 3.0, filtrate, 24 h): 6.52 | solubility at 2 h ([1]; pH 3.0 solution, aqueous buffer, thermodynamic from solid, pH 3.0, 37° C., 2 h): 23100 µg/mL (≈ 40.2 mM) | solubility at 24 h ([1]; pH 3.0 solution, aqueous buffer, thermodynamic from solid, pH 3.0, 37° C., 24 h): 23200 µg/mL (≈ 40.4 mM) | pH ([1]; pH 5.0, filtrate, 2 h): 6.66 | pH ([1]; pH 5.0, filtrate, 24 h): 6.67 | solubility ([1]; pH 5.0 solution, aqueous buffer, thermodynamic from solid, 37° C., pH 5.0): ~8000 µg/mL (≈ 13.9 mM) | solubility at 2 h ([1]; pH 5.0 solution, aqueous buffer, thermodynamic from solid, pH 5.0, 37° C., 2 h): 8370 µg/mL (≈ 14.6 mM) | solubility at 24 h ([1]; pH 5.0 solution, aqueous buffer, thermodynamic from solid, pH 5.0, 37° C., 24 h): 8170 µg/mL (≈ 14.2 mM) | pH ([1]; pH 7.0, filtrate, 2 h): 6.99 | pH ([1]; pH 7.0, filtrate, 24 h): 6.98 | solubility at 2 h ([1]; pH 7.0 solution, aqueous buffer, thermodynamic from solid, pH 7.0, 37° C., 2 h): 60 µg/mL (≈ 0.104 mM) | solubility at 24 h ([1]; pH 7.0 solution, aqueous buffer, thermodynamic from solid, pH 7.0, 37° C., 24 h): 60 µg/mL (≈ 0.104 mM) | pH ([1]; pH 9.0, filtrate, 2 h): 8.77 | pH ([1]; pH 9.0, filtrate, 24 h): 8.79 | solubility at 2 h ([1]; pH 9.0 solution, aqueous buffer, thermodynamic from solid, pH 9.0, 37° C., 2 h): 2 µg/mL (≈ 0.00348 mM) | solubility at 24 h ([1]; pH 9.0 solution, aqueous buffer, thermodynamic from solid, pH 9.0, 37° C., 24 h): 2 µg/mL (≈ 0.00348 mM) | solubility at 2 h ([1]; simulated gastric fluid, thermodynamic from solid, SGF, 37° C., 2 h): 27600 µg/mL (≈ 48.1 mM) | solubility at 24 h ([1]; simulated gastric fluid, thermodynamic from solid, SGF, 37° C., 24 h): 27300 µg/mL (≈ 47.5 mM) | solubility ([1]; solutions: pH 1.0, thermodynamic from solid, 37° C., pH 1.0, pH 3.0, FeSSIF, and SGF): > 18000 µg/mL | solubility ([1]; thermodynamic from solid, 37° C., water, pH 7.0, pH 9.0, and FaSSIF): < 700 µg/mL | solubility at 2 h ([1]; thermodynamic from solid, FaSSIF, 37° C., 2 h): 670 µg/mL (≈ 1.17 mM) | solubility at 24 h ([1]; thermodynamic from solid, FaSSIF, 37° C., 24 h): 700 µg/mL (≈ 1.22 mM) | solubility at 2 h ([1]; thermodynamic from solid, FeSSIF, 37° C., 2 h): 18900 µg/mL (≈ 32.9 mM) | solubility at 24 h ([1]; thermodynamic from solid, FeSSIF, 37° C., 24 h): 18700 µg/mL (≈ 32.5 mM) | solubility at 2 h ([1]; thermodynamic from solid, water, 37° C., 2 h): 2 µg/mL (≈ 0.00348 mM) | solubility at 24 h ([1]; thermodynamic from solid, water, 37° C., 24 h): 3 µg/mL (≈ 0.00522 mM) | pH ([1]; water, filtrate, 2 h): 7.20 | pH ([1]; water, filtrate, 24 h): 7.12
Structure (SMILES): CCc1nc2c(N)ncc(-c3ccc(N4CCC(N5CCN(CC)CC5)CC4)c(OC)c3)c2nc1NC1CCOCC1 [Form T, 3-ethyl-8-(4-(4-(4-ethylpiperazin-1-yl)piperidin-1-yl)-3-methoxyphenyl)-N2-(tetrahydro-2H-pyran-4-yl) pyridino [3,4-b]pyrazine-2,5-diamine]

solubility at 2 h ([2]; FeSSIF, fessif, medium FeSSIF, 2 h): > 10 mg/mL | solubility at 24 h ([2]; FeSSIF, fessif, medium FeSSIF, 24 h): > 10 mg/mL | solubility at 2 h ([2]; SGF, simulated gastric fluid, medium SGF, 2 h): > 10 mg/mL | solubility at 24 h ([2]; SGF, simulated gastric fluid, medium SGF, 24 h): > 10 mg/mL | pH (24 h) ([2]; medium FaSSIF): 6.524 | pH (24 h) ([2]; medium FeSSIF): 5.796 | pH (24 h) ([2]; medium H2O): 7.026 | pH (24 h) ([2]; medium SGF): 1.644 | pH (24 h) ([2]; medium pH 1.2): 1.605 | pH (24 h) ([2]; medium pH 3.0): 4.601 | pH (24 h) ([2]; medium pH 4.5): 5.468 | pH (24 h) ([2]; medium pH 6.8): 6.775 | pH (24 h) ([2]; medium pH 7.4): 7.389 | Solubility at 37° C. (mg/ml) 2 h ([2]; medium FaSSIF, 2 h): >10 mg/mL | Solubility at 37° C. (mg/ml) 24 h ([2]; medium FaSSIF, 24 h): >10 mg/mL | Solubility at 37° C. (mg/ml) 2 h ([2]; medium H2O, 2 h): >10 mg/mL | Solubility at 37° C. (mg/ml) 24 h ([2]; medium H2O, 24 h): >10 mg/mL | Solubility at 37° C. (mg/ml) 2 h ([2]; medium pH 1.2, 2 h): >10 mg/mL | Solubility at 37° C. (mg/ml) 24 h ([2]; medium pH 1.2, 24 h): >10 mg/mL | Solubility at 37° C. (mg/ml) 2 h ([2]; medium pH 3.0, 2 h): >10 mg/mL | Solubility at 37° C. (mg/ml) 24 h ([2]; medium pH 3.0, 24 h): >10 mg/mL | Solubility at 37° C. (mg/ml) 2 h ([2]; medium pH 4.5, 2 h): >10 mg/mL | Solubility at 37° C. (mg/ml) 24 h ([2]; medium pH 4.5, 24 h): >10 mg/mL | Solubility at 37° C. (mg/ml) 2 h ([2]; medium pH 6.8, 2 h): >10 mg/mL | Solubility at 37° C. (mg/ml) 24 h ([2]; medium pH 6.8, 24 h): >10 mg/mL | Solubility at 37° C. (mg/ml) 2 h ([2]; medium pH 7.4, 2 h): >10 mg/mL | Solubility at 37° C. (mg/ml) 24 h ([2]; medium pH 7.4, 24 h): >10 mg/mL | Degradation (%) ([3]; 25° C., 60% RH (open), 1 week): 0.03% | Purity (%) ([3]; 25° C., 60% RH (open), 1 week): 95.81% | Crystal form ([3]; 25° C., 60% RH (open), 1 week): Unchanged | Degradation (%) ([3]; 25° C., 60% RH (open), 2 weeks): 0.32% | Purity (%) ([3]; 25° C., 60% RH (open), 2 weeks): 95.52% | Crystal form ([3]; 25° C., 60% RH (open), 2 weeks): Unchanged | Degradation (%) ([3]; 40° C., 75% RH (open), 1 week): 0.13% | Purity (%) ([3]; 40° C., 75% RH (open), 1 week): 95.71% | Crystal form ([3]; 40° C., 75% RH (open), 1 week): Unchanged | Degradation (%) ([3]; 40° C., 75% RH (open), 2 weeks): 1.06% | Purity (%) ([3]; 40° C., 75% RH (open), 2 weeks): 94.78% | Crystal form ([3]; 40° C., 75% RH (open), 2 weeks): Unchanged | Degradation (%) ([3]; 80° C. (open), 1 day): 0.62% | Purity (%) ([3]; 80° C. (open), 1 day): 95.22% | Crystal form ([3]; 80° C. (open), 1 day): Unchanged | Degradation (%) ([3]; Light contral, 10 days): 0.05% | Purity (%) ([3]; Light contral, 10 days): 95.79% | Crystal form ([3]; Light contral, 10 days): Unchanged | Degradation (%) ([3]; Light exposure, 10 days): 6.67% | Purity (%) ([3]; Light exposure, 10 days): 89.17% | Crystal form ([3]; Light exposure, 10 days): Unchanged | Purity (%) ([3]; initial): 95.84% | Degradation ([3]; light exposure and 40° C., 75% RH): varying degrees of degradation
Structure (SMILES): CCc1nc2c(N)ncc(-c3ccc(N4CCC(N5CCN(CC)CC5)CC4)c(OC)c3)c2nc1NC1CCOCC1 [Malate crystal form VII-A]
